{"source": "patent US20240269145A1", "about": "“USE OF INDOLE COMPOUND AS INHIBITORS OF FERROPTOSIS” (MITOIMMUNE THERAPEUTICS INC., priority 2023, published 2024)", "assay_type_in_all_cases": "cell-based", "key": {"HT-22 cells": {"test_system": "HT-22 cells", "experiment": "Cytosolic lipid ROS after erastin, Experimental Example 3-2", "settings": "HT-22, erastin 1 μM, compound at 10 μM", "description": "[The source words this procedure for another cell line and says it was used here with some conditions changed.] (§1) Experimental Example 3-1: To confirm the protective effect against cytosolic lipid reactive oxygen species in lung epithelial cells, 2×10^5 MLE-12 cells were dispensed into each well of a 12-well plate and cultured for 18 to 24 hours. Each well was treated with Example Compound 1 and ferrostatin-1, which were diluted so that their final concentration became 0.01, 0.1, 1, and 10 μM, and culture was performed for 15 minutes. Afterwards, the cells were treated so that the final concentration of RSL3 became 1 μM, and cultured for 2 hours. To confirm the inhibitory effect against cytosolic lipid reactive oxygen species, BODIPY™ 581/591 C11 (lipid peroxidation sensor) [Invitrogen™; D3861] was used. According to the manufacturer's experimental method, BODIPY™ 581/591 C11 was diluted in the cell culture medium so that the final concentration became 5 μM, and the cells were treated therewith and allowed to react for 30 minutes to perform fluorescent staining. The MLE-12 cells fluorescently stained with BODIPY™ 581/591 C11 were detached from the 12-well plate using 0.25% Trypsin-EDTA and transferred to a microtube, and the fluorescence (excitation/absorption 500 to 650 nm/510 to 665 nm) was measured using BD FACSLyric™ to calculate the rate of change compared to the control group. […]"}, "MLE-12 cells": {"test_system": "MLE-12 cells", "experiment": "Mitochondrial iron ion accumulation (Mito-FerroGreen, images) after RSL3", "settings": "MLE-12, RSL3 1 μM, 1 hour 30 minutes; Example Compound 1 1 μM, DFO 10 μM", "description": "(§2) Experimental Example 9-1: To confirm the inhibitory effect against mitochondrial iron ion accumulation in lung epithelial cells and adrenal medulla cells, 3×10^5 MLE-12 cells and PC-12 cells were each dispensed into a confocal dish and cultured for 18 to 24 hours. Each well was treated with Example Compound 1 and DFO, which were diluted so that their final concentration became 1 μM and 10 μM, respectively, and culture was performed for 20 minutes. Afterwards, the MLE-12 cells were treated with RSL3 so that the final concentration became 1 μM, and cultured for 1 hour and 30 minutes, and the PC-12 cells were treated with RSL3 so that the final concentration became 0.3 μM, and cultured for 30 minutes. To confirm the inhibitory effect against mitochondrial iron ion accumulation, Mito-FerroGreen [DOJINDO; M489] was used. According to the manufacturer's experimental method, Mito-FerroGreen was diluted in the cell culture medium so that the final concentration became 1 μM, and the cells were treated therewith and allowed to react for 30 minutes to perform fluorescent staining. The cells fluorescently stained with Mito-FerroGreen were observed using a fluorescence microscope [Carl Zeiss; Axio Observer 7] to investigate the change in fluorescence (excitation/absorption 450 to 490 nm/500 to 550 nm) compared to the control group (RSL3 untreated group)."}, "PC-12 cells": {"test_system": "PC-12 cells", "experiment": "Mitochondrial iron ion accumulation (Mito-FerroGreen, images) after RSL3", "settings": "PC-12, RSL3 0.3 μM, 30 minutes; Example Compound 1 1 μM, DFO 10 μM", "description": "as §2"}, "ARPE-19 cells": {"test_system": "ARPE-19 cells", "experiment": "Cytosolic lipid ROS after RSL3, Experimental Example 3-5", "settings": "ARPE-19, RSL3 0.3 μM, 2 hr", "description": "[The source words this procedure for another cell line and says it was used here with some conditions changed.] as §1"}, "H9C2 cells": {"test_system": "H9C2 cells", "experiment": "Mitochondrial morphological changes (TEM) after erastin", "settings": "H9C2, 5 μM erastin, 10 μM compound, 5 hours", "description": "To confirm whether Example Compound 1 may inhibit mitochondrial morphological changes due to ferroptosis, an experiment was performed using a transmission electron microscope (TEM). To collect cardiac cell samples, 1.3×10^6 H9C2 cells were cultured in a 150 mm cell culture dish for 4 days, and the culture medium was replaced with fresh culture medium on the second day. After treating the cells with Example Compound 1 at a final concentration of 10 µM for 30 minutes, an erastin-only treatment group was treated with a culture medium including 5 μM erastin; an erastin-Example Compound 1 treatment group was treated with a culture medium including 5 μM erastin and 10 μM Example Compound 1; and the V.C group was treated with a culture medium including the same amount of DMSO, and each group was treated for 5 hours. Afterwards, the supernatant was discarded, and the cells were washed with a 37° C. PBS solution three times. 10 mL of a 2.5% glutaraldehyde solution diluted in PBS was added and treated at room temperature for 1 hour. After washing with PBS solution three times, the remaining PBS solution was completely removed using an aspirator. 1 mL of PBS solution was added to recover the cells with a plastic scraper, and the cells were transferred to a 1.5 mL tube. Cells were allowed to settle using a centrifuge (3000 rpm) for 5 minutes. […]"}}, "data": [{"smiles": "O=S1(=O)CCN(Cc2cc(NC3CCOCC3)c3[nH]c(-c4ccccc4)cc3c2)CC1", "note": "[Example 1, 5-[(1,1-dioxido-4-thiomorpholinyl)methyl]-2-phenyl-N-(tetrahydro-2H-pyran-4-yl)-1H-indole-7-amine]", "values": [{"measurement": "cytosolic lipid reactive oxygen species increased by erastin", "setting": "HT-22 cells", "result": "inhibited"}, {"measurement": "cytosolic lipid reactive oxygen species increased by erastin", "setting": "HT-22 cells; 4 hours and 8 hours after treatment", "result": "effectively inhibited"}, {"measurement": "mitochondrial iron ion accumulation (images)", "setting": "MLE-12 cells", "result": "decrease was confirmed"}, {"measurement": "mitochondrial iron ion accumulation (images)", "setting": "PC-12 cells", "result": "decrease was confirmed"}, {"measurement": "concentration at which lipid reactive oxygen species are inhibited", "setting": "ARPE-19 cells", "result": 0.01, "unit": "µM"}, {"measurement": "mitochondrial morphological changes (size decrease, cristae loss, outer membrane collapse), TEM", "setting": "H9C2 cells", "result": "alleviated"}]}]}
